Source: patent publication US20250002507A1, “7,8-DIHYDRO-5H-1,6-NAPHTHYRIDINE DERIVATIVES AS POSITIVE ALLOSTERIC MODULATORS OF THE MUSCARINIC ACETYLCHOLINE RECEPTOR M4 FOR TREATING NEUROLOGICAL AND PSYCHIATRIC DISORDERS” (Vanderbilt University, priority 2021, published 2025)
Like-named read-outs stand apart in the source and are kept apart here.

Target: T1, Human M4 (Homo sapiens, UniProt P08173)
T1 construct: expressed in transfected cells
T1 sequence (P08173 1-479): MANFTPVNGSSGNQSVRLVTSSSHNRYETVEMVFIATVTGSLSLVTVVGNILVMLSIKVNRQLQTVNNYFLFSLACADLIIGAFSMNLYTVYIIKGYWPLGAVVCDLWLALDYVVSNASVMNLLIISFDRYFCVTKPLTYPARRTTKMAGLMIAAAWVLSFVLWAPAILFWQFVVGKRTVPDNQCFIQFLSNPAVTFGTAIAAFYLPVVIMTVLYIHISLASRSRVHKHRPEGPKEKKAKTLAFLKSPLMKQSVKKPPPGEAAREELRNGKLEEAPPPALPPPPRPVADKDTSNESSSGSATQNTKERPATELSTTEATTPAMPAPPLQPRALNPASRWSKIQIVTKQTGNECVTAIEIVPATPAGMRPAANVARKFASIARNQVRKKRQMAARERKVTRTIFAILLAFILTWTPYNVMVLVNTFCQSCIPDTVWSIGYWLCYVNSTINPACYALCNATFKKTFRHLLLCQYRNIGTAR
Assay: mAChR M4 cell-based functional assay (calcium flux, potentiation of EC20 acetylcholine response), hM4-Gqi5 CHO-K1 cells
Settings: for Emax at 30 µM: CHO-K1, % ACh maximum at 30 μM; for EC50: calcium flux, read-out: Human M4 EC50
In short: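 Positive allosteric modulation was scored as a concentration-dependent rise in the response to an EC20 dose of acetylcholine, added 144 s after the compound. Human M4-Gqi5 CHO-K1 cells carried Fluo-4 dye, and compounds ran as 11-point, 3-fold dilution series. EC50 and Emax came from four-parameter logistic fits of the FDSS fluorescence-ratio traces.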

[1] = Table 3, Human M4, read-out: Emax (% ACh maximum at 30 μM)
[2] = Table 3, potentiation of EC20 acetylcholine response, CHO-K1 cells
[3] = hM4-Gqi5 CHO-K1 cells, PAM of EC20 acetylcholine

SMILES	Emax at 30 µM [1] [%]	EC50 [2] [nM]	Emax at 30 µM (human M4, read-out: Emax) [%]	EC50 [3] [nM]
Cc1cc2nncn2nc1N1CCc2ncc(Oc3cc(F)ccc3F)cc2C1 [Compound 295, 3-(2,5-difluorophenoxy)-6-(7-methyl-[1,2,4]triazolo[4,3-b]pyridazin-6-yl)-5,6,7,8-tetrahydro-1,6-naphthyridine]	109	41	–	–
Cc1c(N2CCc3ncc(Nc4ccnn4C)cc3C2)nn2c(C(F)(F)F)nnc2c1C [Compound 201, 6-(7,8-dimethyl-3-(trifluoromethyl)-[1,2,4]triazolo[4,3-b]pyridazin-6-yl)-N-(1-methyl-1H-pyrazol-5-yl)-5,6,7,8-tetrahydro-1,6-naphthyridin-3-amine]	94	63	–	–
Cc1c(N2CCc3ncc(C(=O)N4CCCC4)cc3C2)nn2c(C(F)(F)F)nnc2c1C [Compound 227, (6-(7,8-dimethyl-3-(trifluoromethyl)-[1,2,4]triazolo[4,3-b]pyridazin-6-yl)-5,6,7,8-tetrahydro-1,6-naphthyridin-3-yl)(pyrrolidin-1-yl)methanone]	76	6410	–	–
Cc1cc2nncn2nc1N1CCc2ncc(-c3cn(C)nc3C)cc2C1 [Compound 113, 3-(1,3-dimethylpyrazol-4-yl)-6-(7-methyl-[1,2,4]triazolo[4,3-b]pyridazin-6-yl)-7,8-dihydro-5H-1,6-naphthyridine]	–	–	97	330
Cc1cc2nncn2nc1N1CCc2ncc(N3CCCn4nccc43)cc2C1 [Compound 206, 3-(6,7-dihydropyrazolo[1,5-a]pyrimidin-4(5H)-yl)-6-(7-methyl-[1,2,4]triazolo[4,3-b]pyridazin-6-yl)-5,6,7,8-tetrahydro-1,6-naphthyridine]	96	53	–	–
Cc1c(N2CCc3ncc(-c4ccc(N5CCN(C)CC5)nc4)cc3C2)nn2cnnc2c1C [Compound 187, 6-(7,8-dimethyl-[1,2,4]triazolo[4,3-b]pyridazin-6-yl)-3-(6-(4-methylpiperazin-1-yl)pyridin-3-yl)-5,6,7,8-tetrahydro-1,6-naphthyridine]	104	63	–	–
Cc1c(N2CCc3ncc(N4CCOc5ncccc54)cc3C2)nn2c(C(F)(F)F)nnc2c1C [Compound 282, 1-(6-(7,8-dimethyl-3-(trifluoromethyl)-[1,2,4]triazolo[4,3-b]pyridazin-6-yl)-5,6,7,8-tetrahydro-1,6-naphthyridin-3-yl)-2,3-dihydro-1H-pyrido[2,3-b][1,4]oxazine]	87	64	–	–
Cc1c(N2CCc3ncc(C(=O)NC(C)c4nccs4)cc3C2)nn2cnnc2c1C (stereo not drawn) [Compound 124, 6-(7,8-dimethyl-[1,2,4]triazolo[4,3-b]pyridazin-6-yl)-N-(1-thiazol-2-ylethyl)-7,8-dihydro-5H-1,6-naphthyridine-3-carboxamide]	–	–	63	3690
Cc1c(N2CCc3ncc(-c4ccc(N(C)C)nc4)cc3C2)nn2cnnc2c1C [Compound 180, 5-(6-(7,8-dimethyl-[1,2,4]triazolo[4,3-b]pyridazin-6-yl)-5,6,7,8-tetrahydro-1,6-naphthyridin-3-yl)-N,N-dimethylpyridin-2-amine]	74	284	–	–
Cc1c(N2CCc3ncc(-c4ccns4)cc3C2)nn2cnnc2c1C [Compound 19, 5-[6-(7,8-dimethyl-[1,2,4]triazolo[4,3-b]pyridazin-6-yl)-7,8-dihydro-5H-1,6-naphthyridin-3-yl]isothiazole]	–	–	106	49.3
Cc1c(N2CCc3ncc(Oc4ccc5c(cnn5C)c4)cc3C2)nn2cnnc2c1C [Compound 8, 6-(7,8-dimethyl-[1,2,4]triazolo[4,3-b]pyridazin-6-yl)-3-(1-methylindazol-5-yl)oxy-7,8-dihydro-5H-1,6-naphthyridine]	–	–	68	200
Cc1c(N2CCc3ncc(NC4CCOC4)cc3C2)nn2c(C(F)(F)F)nnc2c1C (stereo not drawn) [Compound 279, 6-(7,8-dimethyl-3-(trifluoromethyl)-[1,2,4]triazolo[4,3-b]pyridazin-6-yl)-N-(tetrahydrofuran-3-yl)-5,6,7,8-tetrahydro-1,6-naphthyridin-3-amine]	86	1010	–	–
Cc1c(N2CCc3ncc(Oc4cccc(F)c4F)cc3C2)nn2c(C(F)(F)F)nnc2c1C [Compound 300, 3-(2,3-difluorophenoxy)-6-(7,8-dimethyl-3-(trifluoromethyl)-[1,2,4]triazolo[4,3-b]pyridazin-6-yl)-5,6,7,8-tetrahydro-1,6-naphthyridine]	87	969	–	–
COc1ccc2c(c1)CCCN2c1cnc2c(c1)CN(c1nn3c(C(F)(F)F)nnc3c(C)c1C)CC2 [Compound 229, 6-(7,8-dimethyl-3-(trifluoromethyl)-[1,2,4]triazolo[4,3-b]pyridazin-6-yl)-3-(6-methoxy-3,4-dihydroquinolin-1(2H)-yl)-5,6,7,8-tetrahydro-1,6-naphthyridine]	48	590	–	–

The remaining lines, values ahead:

Emax at 30 µM [1] [%]	EC50 [2] [nM]	Emax at 30 µM (human M4, read-out: Emax) [%]	EC50 [3] [nM]	SMILES
84	832	–	–	Cc1c(N2CCc3ncc(Oc4cccc(F)c4)cc3C2)nn2c(C(F)(F)F)nnc2c1C [Compound 278, 6-(7,8-dimethyl-3-(trifluoromethyl)-[1,2,4]triazolo[4,3-b]pyridazin-6-yl)-3-(3-fluorophenoxy)-5,6,7,8-tetrahydro-1,6-naphthyridine]
42	1670	–	–	Cc1c(N2Cc3cc(C(F)(F)F)cnc3C(C)(C)C2)nn2cnnc2c1C [Compound 269, 6-(7,8-Dimethyl-[1,2,4]triazolo[4,3-b]pyridazin-6-yl)-8,8-dimethyl-3-(trifluoromethyl)-5,6,7,8-tetrahydro-1,6-naphthyridine]
95	539	–	–	Cc1c(N2CCc3ncc(-c4cc(F)cnc4Cl)cc3C2)nn2cnnc2c1C [Compound 181, 3-(2-chloro-5-fluoropyridin-3-yl)-6-(7,8-dimethyl-[1,2,4]triazolo[4,3-b]pyridazin-6-yl)-5,6,7,8-tetrahydro-1,6-naphthyridine]
–	–	81	1950	Cc1c(N2CCc3ncc(-c4cc(-c5ccccc5)no4)cc3C2)nn2cnnc2c1C [Compound 132, 5-[6-(7,8-dimethyl-[1,2,4]triazolo[4,3-b]pyridazin-6-yl)-7,8-dihydro-5H-1,6-naphthyridin-3-yl]-3-phenyl-isoxazole]
–	–	82	162	Cc1c(N2CCc3ncc(-c4cnn(CC5CC5)c4)cc3C2)nn2cnnc2c1C [Compound 21, 3-[1-(cyclopropylmethyl)pyrazol-4-yl]-6-(7,8-dimethyl-[1,2,4]triazolo[4,3-b]pyridazin-6-yl)-7,8-dihydro-5H-1,6-naphthyridine]
–	–	92	147	Cc1c(N2CCc3ncc(-c4cccnc4)cc3C2)nn2cnnc2c1C [Compound 44, 6-(7,8-dimethyl-[1,2,4]triazolo[4,3-b]pyridazin-6-yl)-3-(3-pyridyl)-7,8-dihydro-5H-1,6-naphthyridine]
62	602	–	–	Cc1c(N2CCc3ncc(-c4ccc(C5CC5)nc4)cc3C2)nn2c(C(F)(F)F)nnc2c1C [Compound 255, 3-(6-cyclopropylpyridin-3-yl)-6-(7,8-dimethyl-3-(trifluoromethyl)-[1,2,4]triazolo[4,3-b]pyridazin-6-yl)-5,6,7,8-tetrahydro-1,6-naphthyridine]
